Data published in patent publication US20240336629A1, “Tricyclic Derivatives Useful As PARP7 Inhibitors” (JACOBIO PHARMACEUTICALS CO., LTD., priority 2021, published 2024).

Columns and labels:
PARP7 enzyme = PARP7 enzyme (Homo sapiens (Human), UniProt Q7Z3E1); test: PARP7 enzymatic experiment (HTRF assay); assay type: biochemical; conditions: 4PL fit
[1] = test system: lung cancer cell line H1373 (high expression of PARP7); test: Lung cancer cell proliferation inhibition experiment (CTG method); assay type: cell-based; conditions: H1373 cells, 144 hrs incubation, Cell Titer Glo

PARP7 enzyme, sequence (Q7Z3E1 456-657): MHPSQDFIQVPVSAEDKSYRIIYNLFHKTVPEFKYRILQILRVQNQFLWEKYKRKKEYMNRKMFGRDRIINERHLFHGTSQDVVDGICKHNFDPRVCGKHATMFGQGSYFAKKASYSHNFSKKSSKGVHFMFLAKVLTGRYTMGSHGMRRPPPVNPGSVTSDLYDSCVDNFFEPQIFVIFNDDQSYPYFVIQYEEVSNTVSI

IC50 ([1]; Homo sapiens, NCI-H1373, 144 h) [µM]	SMILES	IC50 (PARP7 enzyme) [µM]	IC50 [1] [µM]
	CC(C)N1C(=O)[C@H]2CN(C(=O)CCOC[C@H](C)Nc3cn[nH]c(=O)c3C(F)(F)F)CCN2c2ncc(C(F)(F)F)cc21 (single isomer, unassigned) [Compound 24B]	0.00317	
	COC[C@@H](COCCC(=O)N1CCN2c3ncc(C(F)(F)F)cc3OC[C@H]2C1)Nc1cn[nH]c(=O)c1C(F)(F)F (single isomer, unassigned) [Compound 66A]	0.00205	0.0855
	COC[C@@H](COCCC(=O)N1CCN2c3ncc(C(F)(F)F)cc3OC[C@@H]2C1)Nc1cn[nH]c(=O)c1C(F)(F)F (single isomer, unassigned) [Compound 66B]	0.00182	0.0704
	CC(=O)c1c(N[C@@H](C)COCCC(=O)N2CCN3c4ncc(C(F)(F)F)cc4OCC[C@H]3C2)cn[nH]c1=O (single isomer, unassigned) [Compound 70A]	0.0015	0.0287
	CC(=O)c1c(N[C@@H](C)COCCC(=O)N2CCN3c4ncc(C(F)(F)F)cc4OCC[C@@H]3C2)cn[nH]c1=O (single isomer, unassigned) [Compound 70B]	0.00754	0.342
	C[C@@H](COCCC(=O)N1CCN2c3ncc(C(F)(F)F)cc3SCC[C@H]2C1)Nc1cn[nH]c(=O)c1C(F)(F)F (single isomer, unassigned) [Compound 71B]	0.0149	0.912
	C[C@@H](COCCC(=O)N1CCN2c3ncc(Br)cc3SCC[C@H]2C1)Nc1cn[nH]c(=O)c1C(F)(F)F (single isomer, unassigned) [Compound 72A]	0.000837	0.0133
	C[C@@H](COCCC(=O)N1CCN2c3ncc(Br)cc3SCC[C@@H]2C1)Nc1cn[nH]c(=O)c1C(F)(F)F (single isomer, unassigned) [Compound 72B]	0.00724	
	C[C@@H](COCCC(=O)N1CCN2c3ncc(Cl)cc3SCC[C@H]2C1)Nc1cn[nH]c(=O)c1C(F)(F)F (single isomer, unassigned) [Compound 73B]	0.0179	
	C[C@@H](COCCC(=O)N1CCN2c3ncc(C(F)(F)F)cc3C(=O)C[C@@H]2C1)Nc1cn[nH]c(=O)c1C(F)(F)F (single isomer, unassigned) [Compound 76A]	0.00331	0.36
	C[C@@H](COCCC(=O)N1CCN2c3ncc(C(F)(F)F)cc3C(=O)C[C@H]2C1)Nc1cn[nH]c(=O)c1C(F)(F)F (single isomer, unassigned) [Compound 76B]	0.00504	0.404
	C[C@@H](COCCC(=O)N1CCN2c3ncc(C(F)(F)F)cc3C(F)(F)C[C@@H]2C1)Nc1cn[nH]c(=O)c1C(F)(F)F (single isomer, unassigned) [Compound 77A]	0.0126	0.349
	C[C@@H](COCCC(=O)N1CCN2c3ncc(C(F)(F)F)cc3C(F)(F)C[C@H]2C1)Nc1cn[nH]c(=O)c1C(F)(F)F (single isomer, unassigned) [Compound 77B]	0.004	0.334
	COc1ccc(Cn2ncc(N3CC[C@H]3COCCC(=O)N3CCN4c5ncc(C(F)(F)F)cc5N(C)C(=O)[C@@H]4C3)c(C(F)(F)F)c2=O)cc1 (single isomer, unassigned) [Compound 87A]		0.0058
	COc1ccc(Cn2ncc(N3CC[C@H]3COCCC(=O)N3CCN4c5ncc(C(F)(F)F)cc5N(C)C(=O)[C@H]4C3)c(C(F)(F)F)c2=O)cc1 (single isomer, unassigned) [Compound 87B]		0.00535
	C[C@@H]1C[C@@H]2CN(C(=O)CCOC[C@@H]3CCN3c3cn[nH]c(=O)c3C(F)(F)F)CCN2c2ncc(C(F)(F)F)cc21 (single isomer, unassigned) [Compound 94A]	0.00237	0.00851
	C[C@@H]1C[C@H]2CN(C(=O)CCOC[C@@H]3CCN3c3cn[nH]c(=O)c3C(F)(F)F)CCN2c2ncc(C(F)(F)F)cc21 (single isomer, unassigned) [Compound 94B]	0.00294	0.0133
	C[C@@H](COCCC(=O)N1CCN2c3ncc(C(F)(F)F)cc3NC(=O)CC2C1)Nc1cn[nH]c(=O)c1C(F)(F)F (stereo partly drawn) [Compound 1A]	0.0343	
0.203	C[C@@H](COCCC(=O)N1CCN2c3ncc(C(F)(F)F)cc3N(CC(F)(F)F)C(=O)C2C1)Nc1cn[nH]c(=O)c1C(F)(F)F (stereo partly drawn) [Compound 8]		
	C[C@@H](COCCC(=O)N1CCc2c(c(=O)n(C)c3cc(C(F)(F)F)cnc23)C1)Nc1cn[nH]c(=O)c1C(F)(F)F [Compound 12]	0.00292	
	C[C@@H](COCCC(=O)N1CCN2c3nc(F)c(Cl)cc3N(C)C(=O)[C@H]2C1)Nc1cn[nH]c(=O)c1C(F)(F)F [Compound 14B]	0.0399	
	C[C@@H](COCCC(=O)N1CCN2c3ncc(C(F)(F)F)cc3N(C)C(=O)[C@@H]2C1)Nc1cn[nH]c(=O)c1Cl [Compound 31A]	0.0258	
	C[C@@H](COCCC(=O)N1CCN2c3ncc(C(F)(F)F)cc3N(C)C(=O)[C@H]2C1)Nc1cn[nH]c(=O)c1Cl [Compound 31B]	0.059	
	C[C@@H](COCCC(=O)N1CCN2c3ncc(C(F)(F)F)cc3N(C)C(=O)[C@@H]2C1)Nc1cn[nH]c(=O)c1Br [Compound 32A]	0.00825	

IC50 ([1]; Homo sapiens, NCI-H1373, 144 h) [µM]	SMILES	IC50 (PARP7 enzyme) [µM]	IC50 [1] [µM]
	C[C@@H](COCCC(=O)N1CCN2c3ncc(C(F)(F)F)cc3N(C)C(=O)[C@H]2C1)Nc1cn[nH]c(=O)c1Br [Compound 32B]	0.02	
0.203	C[C@@H](COCCC(=O)N1CCN2c3ncc(C(F)(F)F)cc3NCCC2C1)Nc1cn[nH]c(=O)c1C(F)(F)F (stereo partly drawn) [Compound 37]		
0.108	C[C@@H](COCCC(=O)N1CCN2c3ncc(C(F)(F)F)cc3N(C)CC2C1)Nc1cn[nH]c(=O)c1C(F)(F)F (stereo partly drawn) [Compound 39]		
0.26	C[C@@H](COCCC(=O)N1CCN2c3ncc(C(F)(F)F)cc3N(C)CCC2C1)Nc1cn[nH]c(=O)c1C(F)(F)F (stereo partly drawn) [Compound 40]		
0.276	C[C@@H](COCCC(=O)N1CCn2c(cc3cc(C(F)(F)F)cnc32)C1)Nc1cn[nH]c(=O)c1C(F)(F)F [Compound 41]		
0.138	C[C@@H](COCCC(=O)N1CCn2c(c(Cl)c3cc(C(F)(F)F)cnc32)C1)Nc1cn[nH]c(=O)c1C(F)(F)F [Compound 42]		
0.105	Cc1c2n(c3ncc(C(F)(F)F)cc13)CCN(C(=O)CCOC[C@H](C)Nc1cn[nH]c(=O)c1C(F)(F)F)C2 [Compound 43]		
0.185	C[C@@H](COCCC(=O)N1CCn2c(nc3cc(C(F)(F)F)cnc32)C1)Oc1cn[nH]c(=O)c1C(F)(F)F [Compound 49A]		
0.296	C[C@@H](COCCC(=O)N1CCN2c3ncc(C(F)(F)F)cc3OC[C@H]2C1)Nc1cn[nH]c(=O)c1C(F)(F)F [Compound 53A]		
0.214	C[C@@H](COCCC(=O)N1CCN2c3ncc(C(F)(F)F)cc3OC[C@@H]2C1)Nc1cn[nH]c(=O)c1C(F)(F)F [Compound 53B]		
0.0797	C[C@@H](COCCC(=O)N1CCN2c3ncc(C(F)(F)F)cc3OCC2C1)Nc1cn[nH]c(=O)c1C(F)(F)F (stereo partly drawn) [Compound 53]		
0.0636	C[C@@H](COCCC(=O)N1CCN2c3ncc(C(F)(F)F)cc3OCCC2C1)Nc1cn[nH]c(=O)c1C(F)(F)F (stereo partly drawn) [Compound 54]		
	C[C@@H](COC[C@H](O)C(=O)N1CCN2c3ncc(Cl)cc3OCCC2C1)Nc1cn[nH]c(=O)c1C(F)(F)F (stereo partly drawn) [Compound 64B]	0.00946	
	C[C@@H](COCCC(=O)N1CCN2c3ncc(C(F)(F)F)cc3[S@+]([O-])CC[C@@H]2C1)Nc1cn[nH]c(=O)c1C(F)(F)F [Compound 74A]	0.00216	
	C[C@@H](COCCC(=O)N1CCN2c3ncc(C(F)(F)F)cc3[S@+]([O-])CC[C@H]2C1)Nc1cn[nH]c(=O)c1C(F)(F)F [Compound 74B]	0.00223	
	C[C@@H](COCCC(=O)N1CCN2c3ncc(C(F)(F)F)cc3[S@@+]([O-])CC[C@@H]2C1)Nc1cn[nH]c(=O)c1C(F)(F)F [Compound 74C]	0.0554	
	C[C@@H](COCCC(=O)N1CCN2c3ncc(C(F)(F)F)cc3[S@@+]([O-])CC[C@H]2C1)Nc1cn[nH]c(=O)c1C(F)(F)F [Compound 74D]	0.0722	
	C[C@@H](COCCC(=O)N1CCN2c3ncc(C(F)(F)F)cc3S(=O)(=O)CC[C@@H]2C1)Nc1cn[nH]c(=O)c1C(F)(F)F [Compound 75A]	0.00364	
	C[C@@H](COCCC(=O)N1CCN2c3ncc(C(F)(F)F)cc3S(=O)(=O)CC[C@H]2C1)Nc1cn[nH]c(=O)c1C(F)(F)F [Compound 75B]	0.0135	
	C[C@@H](COCCC(=O)N1CCN2c3ncc(C(F)(F)F)cc3C(C)(O)CC2C1)Nc1cn[nH]c(=O)c1C(F)(F)F (stereo partly drawn) [Compound 78]	0.00283	
	C[C@H](COCCC(=O)N1CCN2c3ncc(C(F)(F)F)cc3N(C)C(=O)[C@@H]2C1)Oc1cn[nH]c(=O)c1C(F)(F)F [Compound 81C]		0.0192
	C[C@H](COCCC(=O)N1CCN2c3ncc(C(F)(F)F)cc3N(C)C(=O)[C@H]2C1)Oc1cn[nH]c(=O)c1C(F)(F)F [Compound 81D]		0.0123
	CC(COCCC(=O)N1CCN2c3ncc(Cl)cc3OCCC2C1)Oc1cn[nH]c(=O)c1C(F)(F)F (stereo not drawn) [Compound 84]	0.00401	

SMILES	IC50 ([1]; Homo sapiens, NCI-H1373, 144 h) [µM]	IC50 (PARP7 enzyme) [µM]	IC50 [1] [µM]
C[C@@H](COCCC(=O)N1CCN2c3ncc(F)cc3N(C)C(=O)[C@@H]2C1)Nc1cn[nH]c(=O)c1C(F)(F)F (single isomer, unassigned) [Compound 19A]	0.269	0.0017	
C[C@@H](COCCC(=O)N1CCN2c3ncc(Cl)cc3N(C)C(=O)[C@H]2C1)Nc1cn[nH]c(=O)c1C(F)(F)F (single isomer, unassigned) [Compound 20B]	0.0574	0.00185	
CCN1C(=O)[C@@H]2CN(C(=O)CCOC[C@H](C)Nc3cn[nH]c(=O)c3C(F)(F)F)CCN2c2ncc(Br)cc21 (single isomer, unassigned) [Compound 23A]	0.117	0.000804	
CC(C)N1C(=O)[C@@H]2CN(C(=O)CCOC[C@H](C)Nc3cn[nH]c(=O)c3C(F)(F)F)CCN2c2ncc(C(F)(F)F)cc21 (single isomer, unassigned) [Compound 83A]	0.143	0.00379	
CC(C)N1C(=O)[C@H]2CN(C(=O)CCOC[C@H](C)Nc3cn[nH]c(=O)c3C(F)(F)F)CCN2c2ncc(C(F)(F)F)cc21 (single isomer, unassigned) [Compound 83B]	0.468	0.00364	
